The target of the experiment is T1, CDK4/cyclin D3 (Homo sapiens, UniProt P11802).
T1 construct: purchased Carna Biosciences, Inc. QS S Assist CDK4/Cyclin D3_FP Kit
In words: Human CDK4/cyclin D3 inhibitory activity (QS S Assist CDK4/Cyclin D3_FP Kit, IMAP fluorescence polarization). The class given is biochemical. The note with it: Human CDK4/cyclin D3 inhibitory activity; read-out: CDK4 Activity symbol. The procedure:
Human CDK4/Cyclin D3 Inhibitory Activity
Each compound was analyzed for CDK4/cyclin D3 inhibitory activity with an assay kit (QS S Assist CDK4/Cyclin D3_FP Kit, available from Carna Biosciences, Inc.). This assay kit determines kinase activity on the basis of the IMAP technology by Molecular Devices. Specifically, the kinase activity is determined through quantification of a variation in fluorescent polarization caused by binding of a kinase-phosphorylated fluorescent substance to an IMAP-binding reagent.
Each solution was prepared with the 10× assay buffer attached to the kit or a separately prepared assay buffer having the same composition as the assay buffer attached to the kit. An assay buffer was prepared by 10-fold dilution of the 10× assay buffer with distilled water. The assay buffer contains 20 mM HEPES (pH 7.4), 0.01% Tween20, and 2 mM dithiothreitol. A test compound solution was prepared by dilution of the test compound with dimethyl sulfoxide (DMSO) to a concentration 100 times higher than the final concentration and then 25-fold dilution with the assay buffer to a concentration four times higher than the final concentration. An ATP/substrate/Metal solution was prepared by five-fold dilution of the 5×ATP/substrate/Metal solution attached to the kit with the assay buffer. An enzyme solution was prepared by dilution of the CDK4/cyclin D3 attached to the kit with the assay buffer to a concentration twice higher than the final concentration (final concentration of CDK4/cyclin D3:12.5 to 25 ng/well). A detection reagent was prepared by five-fold dilution of each of 5× IMAP-binding buffer A and 5×IMAP-binding buffer B with distilled water, mixing of IMAP-binding buffer A with IMAP-binding buffer B at a ratio of 85:15, and 400-fold dilution of the IMAP-binding reagent with the mixed buffer.
The test compound solution (5 μL/well) and the ATP/substrate/Metal solution (5 μL/well) were added to a 384-well plate, and the enzyme solution or the assay buffer (10 μL/well) was added to the plate (total amount of the reaction mixture: 20 μL/well) for initiation of enzymatic reaction. […] The reaction was performed at room temperature for 45 minutes, and the detection reagent (60 μL/well) was then added to the plate, followed by further reaction for 30 minutes at room temperature under light shielding conditions. Subsequently, fluorescent polarization was determined with a microplate reader at an excitation wavelength of 485 nm and an emission wavelength of 535 nm.
The percent inhibition of enzyme activity was calculated for each test compound (note: enzyme activity=100% in the case of addition of the enzyme solution and addition of DMSO instead of the test compound solution, whereas enzyme activity=0% in the case of addition of the assay buffer instead of the enzyme solution, and addition of DMSO instead of the test compound solution). The percent inhibition of enzyme activity was fitted to a dose-response curve, to determine a 50% inhibitory concentration against CDK4/cyclin D3.
In each table, “+++” corresponds to IC50<10 nM, “++” 10 nM≤IC50<100 nM, and “+” 100 nM≤IC50.
(In fluorescence polarisation assays a small probe gives low polarisation when free and higher when bound to something large.)

Some results are limits rather than exact numbers.

T1 sequence (P11802 whole entry): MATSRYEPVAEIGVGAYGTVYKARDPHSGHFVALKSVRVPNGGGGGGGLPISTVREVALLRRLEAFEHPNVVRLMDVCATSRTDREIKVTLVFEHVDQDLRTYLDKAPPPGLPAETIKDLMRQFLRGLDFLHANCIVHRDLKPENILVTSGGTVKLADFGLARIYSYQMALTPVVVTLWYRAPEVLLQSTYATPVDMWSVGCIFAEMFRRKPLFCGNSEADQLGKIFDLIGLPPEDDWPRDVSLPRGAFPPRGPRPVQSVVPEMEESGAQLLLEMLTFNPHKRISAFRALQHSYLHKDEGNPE
T1 sequence (P30281 whole entry partner): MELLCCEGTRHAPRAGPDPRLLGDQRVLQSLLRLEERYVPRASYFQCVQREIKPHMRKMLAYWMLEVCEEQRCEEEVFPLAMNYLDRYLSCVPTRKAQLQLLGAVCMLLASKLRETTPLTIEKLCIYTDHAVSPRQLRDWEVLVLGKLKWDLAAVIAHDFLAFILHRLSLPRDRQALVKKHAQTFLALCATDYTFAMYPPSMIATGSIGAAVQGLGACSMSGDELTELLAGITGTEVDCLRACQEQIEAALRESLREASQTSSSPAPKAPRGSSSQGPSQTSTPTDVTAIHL

Turning to `COC(C)c1cc2cnc(Nc3ccc(CN4CCNCC4)cn3)nc2c(NCCC2CCCCO2)n1` (stereo not shown) [Compound 430], the IC50 is less than 10 nM.

Regarding `COC(C)c1cc2cnc(Nc3ccc(CN4CCNCC4)cn3)nc2c(NCCC2CCCOC2)n1` (stereo not shown) [Compound 431], the IC50 was less than 10 nM.

For `COC(C)c1cc2cnc(Nc3ccc(CN4CCNCC4)cn3)nc2c(NC2(CO)CCOCC2)n1` (stereo not shown) [Compound 433], the IC50 is 10 to 100 nM.

In the case of `COC(C)c1cc2cnc(Nc3ccc(CN4CCNCC4)cn3)nc2c(NC2(CO)CCCCC2)n1` (stereo not shown) [Compound 434], the IC50 is less than 10 nM.

Consider `COC(C)c1cc2cnc(Nc3ccc(CN4CCNCC4)cn3)nc2c(NC[C@H]2CC[C@H](C(=O)O)CC2)n1` (stereo partly shown) [Compound 435], for which the IC50 lay within 10 to 100 nM.

In the case of `COC(C)c1cc2cnc(Nc3ccc(CN4CCNCC4)cn3)nc2c(N[C@H]2CC[C@](C)(C(=O)O)CC2)n1` (stereo partly shown) [Compound 436], the IC50 was in the range of 10 to 100 nM.

For `COC(C)c1cc2cnc(Nc3ccc(CN4CCNCC4)cn3)nc2c(N[C@H]2CC[C@@](C)(C(=O)O)CC2)n1` (stereo partly shown) [Compound 437], the IC50 is no less than 100 nM.

In the case of `CC(C)Nc1nc(C(F)F)cc2cnc(Nc3ccc(N4CCNC(C)(C)C4=O)cn3)nc12` [Compound 438], the IC50 is less than 10 nM.

For the molecule `CC1(C)NCCN(c2ccc(Nc3ncc4cc(C(F)F)nc(NC5CCOCC5)c4n3)nc2)C1=O` [Compound 439], the IC50 lay in the range of 10 to 100 nM.

As to `CC(C)Nc1nc([C@@H](C)O)cc2cnc(Nc3ccc(N4CCNC(C)(C)C4=O)cn3)nc12` [Compound 440], the IC50 is 10 to 100 nM.

Take `C[C@@H](O)c1cc2cnc(Nc3ccc(N4CCNC(C)(C)C4=O)cn3)nc2c(NC2CCOCC2)n1` [Compound 441]: the IC50 is no less than 100 nM.

As for `CC1(C)NCCN(c2ccc(Nc3ncc4cc(C(F)F)nc(N[C@H]5CC[C@H](C(=O)O)CC5)c4n3)nc2)C1=O` [Compound 442], the IC50 was no less than 100 nM.

`CC1(C)NCCN(c2ccc(Nc3ncc4cc(C(F)F)nc(N[C@H]5CC[C@H](O)CC5)c4n3)nc2)C1=O` [Compound 443]: the IC50 was in the range of 10 to 100 nM.

For the molecule `CO[C@H](C)c1cc2cnc(Nc3ccc(N4CCNC(C)(C)C4=O)cn3)nc2c(NC(C)C)n1` [Compound 444], the IC50 is no less than 100 nM.

With `COC(C)c1cc2cnc(Nc3ccc(CN4CCNCC4)cn3)nc2c(NC2CCCCCC2)n1` (stereo not shown) [Compound 445], the IC50 is less than 10 nM.

On to `COC(C)c1cc2cnc(Nc3ccc(CN4CCNCC4)cn3)nc2c(Nc2ccc(F)cc2)n1` (stereo not shown) [Compound 446], for which the IC50 fell in the range of 10 to 100 nM.

Take `COC(C)c1cc2cnc(Nc3ccc(CN4CCNCC4)cn3)nc2c(Nc2cccc(F)c2)n1` (stereo not shown) [Compound 447]: the IC50 was in the range of 10 to 100 nM.

With `COC(C)c1cc2cnc(Nc3ccc(CN4CCNCC4)cn3)nc2c(Nc2ccc(C(=O)O)cc2)n1` (stereo not shown) [Compound 448], the IC50 is no less than 100 nM.

In the case of `COC(C)c1cc2cnc(Nc3ccc(CN4CCNCC4)cn3)nc2c(Nc2cccc(C(=O)O)c2)n1` (stereo not shown) [Compound 449], the IC50 is no less than 100 nM.

For `COc1ccc(Nc2nc(C(C)OC)cc3cnc(Nc4ccc(CN5CCNCC5)cn4)nc23)cc1` (stereo not shown) [Compound 450], the IC50 is less than 10 nM.

Turning to `COc1cccc(Nc2nc(C(C)OC)cc3cnc(Nc4ccc(CN5CCNCC5)cn4)nc23)c1` (stereo not shown) [Compound 451], the IC50 is less than 10 nM.

For `CNC1CCN(c2ccc(Nc3ncc4cc(C(C)OC)nc(NC(C)C)c4n3)nn2)CC1` (stereo not shown) [Compound 452], the IC50 was less than 10 nM.

`COC(C)c1cc2cnc(Nc3ccc(N4CCCNCC4)cn3)nc2c(NC(C)C)n1` (stereo not shown) [Compound 453]: the IC50 is less than 10 nM.

With `COC(C)c1cc2cnc(Nc3ccc(CN4CCNCC4)cn3)nc2c(NCC2(C)CC(O)CC(C)(C)C2)n1` (stereo not shown) [Compound 454], the IC50 is less than 10 nM.

As for `COC(C)c1cc2cnc(Nc3ccc(CN4CCNCC4)cn3)nc2c(NC23CC4CC(CC(O)(C4)C2)C3)n1` (stereo not shown) [Compound 455], the IC50 is less than 10 nM.

Take `COC(C)c1cc2cnc(Nc3ccc(OCC4(N)CC4)cn3)nc2c(NC(C)C)n1` (stereo not shown) [Compound 457]: the IC50 is less than 10 nM.

As for `COC(C)c1cc2cnc(Nc3ccc(OCC(C)(C)N)cn3)nc2c(NC(C)C)n1` (stereo not shown) [Compound 458], the IC50 is less than 10 nM.

As to `CNC1(COc2ccc(Nc3ncc4cc(C(C)OC)nc(NC(C)C)c4n3)nc2)CC1` (stereo not shown) [Compound 461], the IC50 was in the range of 10 to 100 nM.

`CO[C@H](C)c1cc2cnc(Nc3ccc(N4CCN[C@H](C)C4=O)cn3)nc2c(NC(C)C)n1` [Compound 462]: the IC50 lay in the range of 10 to 100 nM.

For the molecule `COC(C)c1cc2cnc(Nc3ccc(CN4CCNCC4)cn3)nc2c(N[C@H]2CC[C@H](OC(C)C)CC2)n1` (stereo partly shown) [Compound 464], the IC50 is less than 10 nM.

On to `COC(C)c1cc2cnc(Nc3ccc(CN4CCNCC4)cn3)nc2c(NCC2CC(F)(F)C2)n1` (stereo not shown) [Compound 465], for which the IC50 is less than 10 nM.

As for `COC(C)c1cc2cnc(Nc3ccc(CN4CCNCC4)cn3)nc2c(NC2CCCOCC2)n1` (stereo not shown) [Compound 468], the IC50 is less than 10 nM.

As for `CO[C@H](C)c1cc2cnc(Nc3ccc(N4CCC(F)CC4)cn3)nc2c(NC(C)C)n1` [Compound 469], the IC50 is 10 to 100 nM.

Take `CO[C@H](C)c1cc2cnc(Nc3ccc(N4CCC(F)(F)CC4)cn3)nc2c(NC(C)C)n1` [Compound 470]: the IC50 is no less than 100 nM.

Turning to `CO[C@H](C)c1cc2cnc(Nc3ccc(OCCN(C)C)nn3)nc2c(NC(C)C)n1` [Compound 471], the IC50 was 10 to 100 nM.

For the molecule `CO[C@H](C)c1cc2cnc(Nc3ccc(CN4CCC(F)CC4)cn3)nc2c(NC(C)C)n1` [Compound 472], the IC50 lay within 10 to 100 nM.

With `CO[C@H](C)c1cc2cnc(Nc3ccc(OC4CCNCC4(F)F)cn3)nc2c(NC(C)C)n1` (stereo partly shown) [Compound 473], the IC50 fell in the range of 10 to 100 nM.

`COC(C)c1cc2cnc(Nc3ccc(CN4CCNCC4)cn3)nc2c(NC23CCC(C(=O)O)(CC2)CC3)n1` (stereo not shown) [Compound 475]: the IC50 lay in the range of 10 to 100 nM.

Take `CO[C@H](C)c1cc2cnc(Nc3ccc(N4CC5(CNC5)C4)cn3)nc2c(NC(C)C)n1` [Compound 476]: the IC50 is less than 10 nM.

Take `CO[C@H](C)c1cc2cnc(Nc3ccc(N4CC5(CCCNC5)C4)cn3)nc2c(NC(C)C)n1` [Compound 477]: the IC50 is less than 10 nM.

For the molecule `CO[C@H](C)c1cc2cnc(Nc3ccc(N4CC5(CCN5)C4)cn3)nc2c(NC(C)C)n1` [Compound 478], the IC50 is less than 10 nM.

For `CO[C@H](C)c1cc2cnc(Nc3ccc(N4CC5(CCNC5)C4)cn3)nc2c(NC(C)C)n1` [Compound 479], the IC50 is less than 10 nM.

`CO[C@H](C)c1cc2cnc(Nc3ccc(N4CC5(CCC5)C4)cn3)nc2c(NC(C)C)n1` [Compound 480]: the IC50 fell in the range of 10 to 100 nM.

With `CO[C@H](C)c1cc2cnc(Nc3ccc(N4CCC5(CC4)COC5)cn3)nc2c(NC(C)C)n1` [Compound 481], the IC50 is 10 to 100 nM.

For `CO[C@H](C)c1cc2cnc(Nc3ccc(N4CC5(CCNCC5)C4)cn3)nc2c(NC(C)C)n1` [Compound 482], the IC50 was less than 10 nM.

Turning to `CO[C@H](C)c1cc2cnc(Nc3ccc(OC4CC5(CNC5)C4)cn3)nc2c(NC(C)C)n1` [Compound 483], the IC50 is less than 10 nM.

For `CO[C@H](C)c1cc2cnc(Nc3ccc(N4CC5(CC(N)C5)C4)cn3)nc2c(NC(C)C)n1` [Compound 484], the IC50 is less than 10 nM.

As to `CO[C@H](C)c1cc2cnc(Nc3ccc(NC4CC5(CNC5)C4)cn3)nc2c(NC(C)C)n1` [Compound 485], the IC50 was less than 10 nM.

On to `CO[C@H](C)c1cc2cnc(Nc3ccc(N4CC5(CCCN5)C4)cn3)nc2c(NC(C)C)n1` [Compound 486], for which the IC50 is less than 10 nM.

With `CO[C@H](C)c1cc2cnc(Nc3ccc(OCC(F)CN(C)C)cn3)nc2c(NC(C)C)n1` (stereo partly shown) [Compound 487], the IC50 was less than 10 nM.

In the case of `CO[C@H](C)c1cc2cnc(Nc3ccc(N4CCCN(C)CC4)nn3)nc2c(NC(C)C)n1` [Compound 488], the IC50 is less than 10 nM.

As to `CO[C@H](C)c1cc2cnc(Nc3ccc(N4CCC(N(C)C)CC4)nn3)nc2c(NC(C)C)n1` [Compound 489], the IC50 is less than 10 nM.

As to `CC(C)Nc1nc([C@@H](C)O)cc2cnc(Nc3ccc(N4CCCN(C)CC4)nn3)nc12` [Compound 490], the IC50 is less than 10 nM.

For `CO[C@H](C)c1cc2cnc(Nc3ccc(CN4CCCNCC4)cn3)nc2c(NC(C)C)n1` [Compound 493], the IC50 was less than 10 nM.

On to `CO[C@H](C)c1cc2cnc(Nc3ccc(CN4CCC(O)CC4)cn3)nc2c(NC(C)C)n1` [Compound 494], for which the IC50 is less than 10 nM.

(Values after patent US10124004B2, “Pyrido[3,4-d]pyrimidine derivative and pharmaceutically acceptable salt thereof” (Teijin Pharma Limited, priority 2015, dated 2018).)
